Data reported in patent US9546157B2, “Asymmetric piperidinyl-substituted ureas as medicines” (Helsinn Healthcare SA, priority 2014, dated 2017).
Entries after “also recorded” stand apart in the source; their conditions may differ.

Tests used:
GHSR1a [1] = molecular target: T1, GHSR1a (Homo sapiens, UniProt Q92847); assay: Calcium FLIPR assay, GHSR-1a antagonism (reduction of ghrelin response); format: cell-based; settings: HEK293/GHSR1a cells, ghrelin 10 nM
T1 construct: expressed in transfected cells; host or cells: HEK293
T1 sequence (Q92847 whole entry): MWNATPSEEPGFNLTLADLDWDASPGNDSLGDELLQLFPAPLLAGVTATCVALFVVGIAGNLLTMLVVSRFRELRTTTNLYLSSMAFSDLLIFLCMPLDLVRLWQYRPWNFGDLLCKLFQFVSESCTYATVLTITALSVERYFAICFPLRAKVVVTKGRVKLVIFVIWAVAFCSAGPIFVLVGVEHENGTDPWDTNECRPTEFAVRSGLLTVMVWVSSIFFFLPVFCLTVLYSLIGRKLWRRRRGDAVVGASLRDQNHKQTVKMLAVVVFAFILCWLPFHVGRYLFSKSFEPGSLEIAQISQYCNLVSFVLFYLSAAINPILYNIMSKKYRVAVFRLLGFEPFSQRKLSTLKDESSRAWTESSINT
Summary of the method: (§1)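 Relative fluorescence read-out (FLIPR) of intracellular calcium in HEK293/GHSR1a cells. For antagonist mode, compound and 10 nM ghrelin were co-added at t=20 sec, and inhibition of the ghrelin response over 2 minutes gave IC50. Agonist mode: compound alone at t=20 sec, response tracked 2 minutes; EC50 from dose-response.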

GHSR1a [2] = molecular target: T1, GHSR1a; assay: Calcium FLIPR assay, GHSR-1a agonism; format: cell-based; settings: HEK293/GHSR1a cells
Summary of the method: as §1

C57BL/6J mice = assay: Food intake test in mouse (GHSR1a antagonists); format: in vivo; settings: for inhibition in vivo at 30 mg/kg / inhibition in vivo at 10 mg/kg: Mus musculus, po
Summary of the method: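 Male C57BL/6J mice (18-22 g) were fasted overnight (16 h before dosing), then randomized by body weight to vehicle or test agent (n=6 each). Cumulative food intake was measured at 1, 2, 4, 8 and 24 hrs post-dose as premeasured food minus uneaten food.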

[3] = system: female Sprague-Dawley rats; assay: Binge eating model in non-estrous female rats (food restriction + stress, HPF intake); format: in vivo, rat; settings: for 2-h chow food intake during binge eating test / 24-h chow food intake after binge eating test: acute administration (compounds 3 and 30 mg/kg, Topiramate 60 mg/kg)
Protocol: In this Example, the therapeutic potential of compounds were tested for their ability to inhibit binge eating. The animal model used was developed to explore the combination of food restriction and stress. […] Considering the reliability and the robustness of this model, it was adopted to test the inventive compounds.
A total of N=117, 52-day-old female Sprague-Dawley rats (175-200 g) were used. Rats were acclimated in individual cages with metallic walls; the floor and the front wall made of metallic grid. The dimensions of the cage floor being 30 cm×30 cm; the cage is 30 cm high. A front door (30 cm×20 cm) made of metallic grid was positioned in the anterior wall of the cage to gain access to the inside of the cage; the remaining part of the front wall was equipped with a drinking burette.
Rats were kept in a room at constant temperature (20-22° C.) and humidity (45-55%) under a 12-h light/dark cycle (lights on at 08:00 am) with ad lib chow and water. All procedures were conducted in adherence to the European Community Directive for Care and Use of Laboratory Animals.
Rats were offered food pellets, 4RF18, Mucedola, Settimo Milanese, Italy (2.6 kcal/g). The Highly Palatable Food (HPF) was prepared by mixing:
Rats were exposed to 3 consecutive 8-day cycles followed by the final test on day 25:
a) the control group (NR+NS) had chow ad libitum for 4 days, on days 5-6 it received chow+HPF for 2 h; on days 7-8 it had chow ad libitum; on day 25 it was not exposed to stress;
b) the second group (R+S) had chow restricted to 66% of the normal intake for 4 days, was offered chow and HPF (2 h) on days 5-6 and only chow on days 7-8; on day 25 it […].
Body weights and food intake were recorded daily. Food intake is expressed as mean kilocalories per kilogram ingested±SEM.
Therefore, immediately after the test on day 25, vaginal smears were collected and analyzed under microscope to assess the ovarian phase, and data from rats in the estrous phase were not included in the statistical analysis. Vaginal smears were analyzed by an experienced experimenter blind to treatment conditions.
For 15 min, the container (China coffee cup) containing HPF is placed outside the cage; the container handle is hooked to the top wire wall of the cage in the hollow part where food pellets are usually offered. In these conditions, the animal is able to see the cup in which it received HPF on days 5, 6, 13, and 14 of the first two cycles, is able to see in part the HPF itself, and is able to smell its odour. In this 15-min period, the rat engages in repeated movements of the forepaws, head, and trunk aimed at obtaining the HPF, but it is not able to reach it. Rats undergo the stressful procedure between 10.00 and 12.00 am. After 15 min, the cup is placed inside the cage of the rats in the stress group (R+S), so that the HPF became accessible to the rat.
100 mg of each compound (H0816, H0860, H0847 and H0900) was accurately weighed and suspended in 13.33 ml of 0.5% carboxymethyl cellulose sodium salt (CMC, Sigma-Aldrich Cat. C4888, lot 120M0216V) solution. The lower dose solution was prepared by dilution of 30 mg/ml suspension with 0.5% CMC solution. Suspensions were prepared freshly on test day. Vehicle was composed by a solution of 0.5% carboxymethyl cellulose sodium salt and was prepared by dissolving 1 g of CMC in 200 ml of distilled water. 180 mg of Topiramate was accurately weighed and suspended in 12 ml of 0.5% CMC solution. Compounds (vehicle and active principles) were administered by gavage in a volume of 4 ml/kg of body weight one hour before access to HPF.
All data are expressed as the mean±s.e.m. and each value reflects the mean number of animals per group as described in the legends. For data evaluation, the analysis of variance (ANOVA) was used followed by post-hoc (Bonferroni's) test when appropriate. Statistical significance was set at P<0.05. The Software used for the Graphs was Origin 7.0. […]

[4] = Metabolic Stability (H = Human); format: in vitro ADME
[5] = Metabolic Stability (M = Mouse); format: in vitro ADME
[6] = first test, 30 mg/kg by gavage 1 h before access to HPF, vs R+S vehicle
[7] = first test, 3 and 30 mg/kg by gavage
[8] = first test, doses of 3 and 30 mg/kg by gavage, acute administration
[9] = second test, H0816 3, 10 and 30 mg/kg, Topiramate 60 mg/kg

SMILES	IC50 (GHSR1a [1]) [nM]	EC50 (GHSR1a [2]) [nM]	HPF intake (binge eating) in R+S rats, post-hoc [3, 6]	animals' gross behaviour during the 2-h test [3, 7]	2-h chow food intake during binge eating test ([3]; first test)	24-h chow food intake after binge eating test ([3]; first test)	2-h HPF intake (binge eating) in R+S rats, overall (ANOVA) [3, 8]	Metabolic Stability H [4]	Metabolic Stability M [5]	further results
C[C@H](NC(=O)N(C)C1CCN(C)CC1)c1ccc(-c2cnccn2)c(Cl)c1Cl [Compound H0816, (S)-3-(1-(2,3-dichloro-4-(pyrazin-2-yl)phenyl)ethyl)-1-methyl-1-(1-methylpiperidin-4-yl)urea]	5.1	> 30000	statistically significant (P<0.05) at 15 min time point	did not affect animals' gross behaviour	did not modify 2-h chow intake	did not modify 24-h chow intake	reduced binge eating episodes; also recorded: significant difference; also recorded: significantly reduced BE behaviour			inhibition in vivo at 30 mg/kg (C57BL/6J mice; 30 mg/kg PO fasted mice, time not given): 12%; HPF intake (binge eating) in R+S rats, post-hoc ([3]; second test, 10 mg/kg by gavage 1 h before access to HPF): statistically significant (P<0.05) at 15 min time point; HPF intake (binge eating) in R+S rats, post-hoc ([3]; second test, 30 mg/kg by gavage 1 h before access to HPF): completely blocked (P<0.01) the BE episode at 15 min; animals' gross behaviour during the 2-h test ([3]; second test, 3, 10 and 30 mg/kg by gavage): did not affect animals' gross behaviour; 2-h chow intake [3, 9]: did not modify; 24-h chow intake [3, 9]: did not modify; 2-h HPF intake (binge eating) in R+S rats, overall (ANOVA) ([3]; second test, doses of 3, 10 and 30 mg/kg by gavage): significant difference; also recorded: confirmed, dose dependently, its selective inhibitory effect on BE
C[C@H](NC(=O)N(C)C1CCN(C)CC1)c1ccc(-c2cncc(F)n2)c(Cl)c1Cl [Compound H0847, (S)-3-(1-(2,3-dichloro-4-(6-fluoropyrazin-2-yl)phenyl)ethyl)-1-methyl-1-(1-methylpiperidin-4-yl)urea]	2	> 30000	significantly (P<0.01) reduced HPF intake at all time points	mild sedation	significantly increased 2-h chow food intake	significantly increased 24-h chow food intake	reduced binge eating episodes; also recorded: significant difference; also recorded: significantly reduced BE behaviour	High H High M	High H High M	Mouse Food Intake, result in words (C57BL/6J mice; PO 10 mg/kg + ANA (ANAM) 30 mg/kg mice): PO 10 mg/kg + ANA 30 mg/kg mice: NSE; HPF intake (binge eating) in R+S rats, post-hoc ([3]; first test, 3 mg/kg by gavage 1 h before access to HPF, vs R+S vehicle): statistically significant at 15, 30 and 60 min after HPF access
CC[C@H](NC(=O)N(C)C1CCN(C)CC1)c1ccc(-c2cnccn2)c(Cl)c1Cl [Compound H0860, (S)-3-(1-(2,3-dichloro-4-(pyrazin-2-yl)phenyl)propyl)-1-methyl-1-(1-methylpiperidin-4-yl)urea]	3	> 30000			significantly increased 2-h chow food intake	significantly increased 24-h chow food intake	not statistically significant; also recorded: did not significantly reduce HPF intake; also recorded: did not affect HPF intake	High H High M	High H High M	inhibition in vivo at 10 mg/kg (C57BL/6J mice; 1 h, PO 10 mg/kg + ANA 30 mg/kg mice): 68%
CN1CCC(N(C)C(=O)N[C@H](c2ccc(-c3cnccn3)c(Cl)c2Cl)C(F)(F)F)CC1 [Compound H0900, (R)-3-(1-(2,3-dichloro-4-(pyrazin-2-yl)phenyl)-2,2,2-trifluoroethyl)-1-methyl-1-(1-methylpiperidin-4-yl)urea]	3	> 30000	statistically significant (P<0.01) at all time points	did not affect animals' gross behaviour	did not modify 2-h chow intake	did not modify 24-h chow intake	reduced binge eating episodes; also recorded: significant difference; also recorded: significantly reduced BE behaviour	Medium	High	inhibition in vivo at 10 mg/kg (C57BL/6J mice; 1 h, PO 10 mg/kg + ANA 30 mg/kg fed mice): 60%; inhibition in vivo at 30 mg/kg (C57BL/6J mice; 1 h, PO 30 mg/kg + ANA 30 mg/kg fed mice): 91%; inhibition in vivo at 30 mg/kg (C57BL/6J mice; 1 h, PO 30 mg/kg fasted mice): 26%; inhibition in vivo at 30 mg/kg (C57BL/6J mice; 1 h, PO 30 mg/kg fed mice): 90%
